Reference: patent US20090304674A1, “METHODS FOR TREATING DISEASE BY REGULATING CLL CELL SURVIVAL” (priority 2005, published 2009)

How the values were obtained:
Format in all cases: cell-based, human
[1] = test system: p44/42 MAPK (ERK1/2) in CLL B cells; assay: Immunoblot of ERK1/2 phosphorylation in CLL B cells; details: SDF-1α 200 ng/ml
Method: (§1) Cell lysates were prepared with RIPA buffer (10 mM Tris (pH 7.4), 150 mM NaCl, 1% Triton x 100, 1% deoxycholate, 0.1% SDS, 5 mM EDTA), containing 1 mM PMSF, 0.28 TIU/ml aprotinin, 50 μg/ml leupeptin, 1 mM benzamidine, 0.7 μg/ml pepstatin. Lysates were normalized for total protein (20 μg), subjected to SDS-PAGE (4-15% gradient gels, Bio-Rad, Hercules, Calif.) and immunoblot assay. We incubated the blots with secondary antibodies that were conjugated with horseradish peroxidase. Blots then were prepared for enhanced chemiluminescence (ECL) detection system (Amersham, Little Chalfont, Buckinghamshire, UK) and subsequent autoradiography with Super RX film (Fuji, Tokyo, Japan). The mouse mAb against APRIL (APRIL8) was from Alexis Biochemicals. The mouse mAb against inhibitor of kappa B-α (IκκBα was from Imgenex (San Diego, Calif.). The antibodies against anti-phosho-MAP kinase Erk1/2 and anti-MAP kinase Erk1/2-CT were purchased from Upstate Biotechnology. Antibodies against AKT or phospho-AKT (Ser473) were from Cell Signaling (Beverly, Mass.). Rabbit polyclonal antibodies (Mcl-1, Bcl-2, and Bax) were raised against synthetic peptides.21 Also primary antibodies included β-actin (Sigma Immunochemicals, St Louis, Mo.). Anti-p52 and anti-p65 antibodies were purchased from Upstate Biotechnology.

AKT in CLL B cells = assay: Immunoblot of AKT (Ser473) phosphorylation in CLL B cells; details: SDF-1α 200 ng/ml
Method: as §1

[2] = test system: NF-κB2/p100 pathway in CLL B cells; assay: Immunoblot of alternative NF-κB2 pathway activation (p100 to p52, p52 nuclear translocation) in CLL B cells; details: concentrations that promote CLL cell survival; rhBAFF 50 ng/ml, rhAPRIL 500 ng/ml, 24 hours
Method: as §1
For fractionation experiments, cells were collected by centrifugation and washed with PBS. The cell pellet containing 5×10^6 cells was suspended in 100 μl of hypotonic buffer (50 mM Tris (pH7.4), 5 mM EDTA, 10 mM NaCl, 0.05% NP-40, 1 mM PMSF, 10 μg/ml Aprotinin, 10 μg/ml Leupeptin, 10 μg/ml Pepstatin, 10 mM β-Glycerophosphate, 1 mM Na-Vanadate, 1 mM NaF). After 10 minutes the lysate was spun and the supernatant was collected as cytoplasmic lysates. The pellet was washed 5 times in hypotonic buffer containing 0.1% NP-40. The remaining pellet was suspended in 100 μl RIPA buffer containing protease and phosphatase inhibitors. […]

[3] = test system: canonical NF-κB1 pathway in CLL B cells; assay: Immunoblot of canonical NF-κB1 pathway activation (IκBα degradation/phosphorylation, p65 nuclear translocation) in CLL B cells; details: concentrations that promote CLL cell survival; rhBAFF 50 ng/ml, rhAPRIL 500 ng/ml
Method: as §1
For fractionation experiments, cells were collected by centrifugation and washed with PBS. The cell pellet containing 5×10^6 cells was suspended in 100 μl of hypotonic buffer (50 mM Tris (pH7.4), 5 mM EDTA, 10 mM NaCl, 0.05% NP-40, 1 mM PMSF, 10 μg/ml Aprotinin, 10 μg/ml Leupeptin, 10 μg/ml Pepstatin, 10 mM β-Glycerophosphate, 1 mM Na-Vanadate, 1 mM NaF). After 10 minutes the lysate was spun and the supernatant was collected as cytoplasmic lysates. The pellet was washed 5 times in hypotonic buffer containing 0.1% NP-40. The remaining pellet was suspended in 100 μl RIPA buffer containing protease and phosphatase inhibitors. After an appropriate amount of 3× sample buffer (200 mM Tris (pH 6.8), 30 mM EDTA, 30% Glycerol, 6% SDS) was added, the sample was boiled for 10 minutes, spun for 10 minutes and the supernatant was recovered as nucleus lysates. Anti-NF kappa B p52 and p65 were purchased from Upstate Biotechnology. Anti-SP-1 was purchased from Santa Cruz Biotechnology (Santa Cruz, Calif.).
Cell lysates were prepared with radioimmunoprecipitation assay (RIPA) buffer (10 mM Tris [pH 7.4], 150 mM NaCl, 1% Triton X-100, 0.1% deoxycholate, 0.1% SDS, 5 mM EDTA), containing 1× complete protease inhibitor cocktail (Roche diagnostics), 1 mM sodium fluoride (NaF), and 1 mM sodium vanadate (Na3VO4). Lysates were normalized for total protein (25 μg) and subjected to SDS-PAGE (4-15% gradient gels, Bio-Rad, Hercules, Calif.) and immunoblot assay. We incubated the blots with secondary antibodies that were conjugated with horseradish peroxidase. Blots then were prepared for enhanced chemiluminescence (ECL) detection system (Amersham, Little Chalfont, United Kingdom) and subsequent autoradiography with Super RX film (Fuji, Tokyo, Japan).
For fractionation experiments, cells were collected by centrifugation and washed with PBS. The cell pellet containing 5×10^6 cells was suspended in 100 μl of hypotonic buffer (50 mM Tris [pH7.4], 5 mM EDTA, 10 mM NaCl, 0.05% Nonidet P40 [NP-40]), containing 1× complete protease inhibitor cocktail, 1 mM NaF, and 1 mM Na3VO4. After 10 minutes, the lysate was spun and the supernatant was collected as cytoplasmic lysates. […]

Mcl-1 in CLL B cells = assay: Immunoblot of Mcl-1 expression in CLL B cells; details: short-term culture of isolated CLL B cells
Method: as §1

[4] = test system: Bcl-2, Bax, Bcl-xL in CLL B cells; assay: Immunoblot of Bcl-2, Bax, Bcl-xL expression in CLL B cells; details: short-term culture of isolated CLL B cells
Method: as §1

[5] = 3 minutes, 4F at 50 nM or 500 nM
[6] = 3 or 10 minutes, rhBAFF 50 ng/ml

Row | Substance | block of SDF-1α-induced phosphorylation of ERK1/2 [1, 5] | block of SDF-1α-induced phosphorylation of AKT at Ser473 (AKT in CLL B cells; [5]) | activation of NF-κB2 (processing of p100 to p52, translocation of p52 to the nucleus) [2] | activation of classical/canonical NF-κB pathway (IκBα degradation, p65 translocation to nucleus) [3] | induction of phosphorylation of ERK1/2 [1, 6] | induction of phosphorylation/activation of AKT (Ser473) (AKT in CLL B cells; [6]) | induction of Mcl-1 expression in CLL B cells (Mcl-1 in CLL B cells) | changes in levels of Bcl-2, Bax, or Bcl-xL [4]
1 | 4F-benzoyl-TE14011 [reference compound] | could be blocked | could be blocked |  |  |  |  |  | 
2 | SDF-1α |  |  | did not observe activation of NF-κB2 | did not have this activity | induced phosphorylation of ERK1/2 | induced phosphorylation of AKT at Ser473 | could not induce isolated CLL B cells to express higher levels of Mcl-1 | did not observe significant changes
